We go through seven compounds from patent publication US12569565B2, “Compositions and methods for the treatment of viral infections” (Cidara Therapeutics, Inc., priority 2018, dated 2026).

The subject of data set [1] is H1N1 A/Netherlands/602/2009. In kind it is cell-based, influenza A virus.
The test system of data set [2] is influenza A/WSN/1933 (H1N1). As to the kind of experiment: CPE assay at different multiplicities of infection (Example 94). The conditions noted are these: read-out: EC50 H1N1 A/WSN/1933 (CPE in MDCK cells). In kind it is cell-based, influenza A virus.
For data set [3], the system named is A/Puerto Rico/08/1934 (PR8), H1N1. The format is in vivo, female BALB/c mice. To be noted: for % Survival: 10 days.
Data set [4] deals with Influenza B/Brisbane/60/2008. Further details: species or system female BALB/c mice. The conditions noted are these: mouse, in vivo.
Data set [5] concerns INFV A H3N2 A/Hong Kong/1/68. The data set is described as follows: Lethal mouse influenza model, Study #2. To be noted: 20 mg/kg PO B.I.D for 5 days from 8 h post infection. The format is in vivo, female BALB/c mice.
The subject of data set [6] is Influenza A/Puerto Rico/8/1934 (H1N1). Further details: species or system female BALB/c mice. The conditions noted are these: mouse, in vivo.
Data set [7] deals with IAV H1N1 A/Texas/36/91. The arrangement: species or system female BALB/c mice. To be noted: mouse, in vivo.
The conditions of data set [8]: 1 mg/mL in 1xPBS, over a week at 60° C.; HPLC 240 nm.
Data set [9] concerns INFV A H1N1 A/Texas/36/91. As to the kind of experiment: Lethal mouse influenza model, Study #3 (dosing 28 days before challenge). In kind it is in vivo, female BALB/c mice. To be noted: 20 mg/kg PO twice daily 5 days from 8 h post infection. From the text:
The experiment comprised 7 groups of 5 mice. At day 0, all mice were challenged with 1×LD90 H1N1 A/Texas/36/91. Groups 1-6 received treatment IV, 28 days before challenge (Table 12). Vehicle (PBS) was included as an additional negative control. […] All mice were monitored for survival (FIGS. 31A-31F) for 15 days after challenge.

Data set [10] has as its system INFV A H1N1 A/Texas/36/91. As to the kind of experiment: Lethal mouse influenza model, Study #4 (treatment window). The format is in vivo, female BALB/c mice. From the text:
The experiment comprised 13 groups of 5 mice. At day 0, all mice were challenged with 1×LD90 H1N1 A/Texas/36/91. […] Vehicle (PBS) and Fc only were included as negative controls. […] All mice were monitored for survival (FIGS. 32A-32F) for 15 days after challenge.

In data set [11] the test system is INFV A H1N1 A/Texas/36/91. As to the kind of experiment: Lethal mouse influenza model, Study #1. In kind it is in vivo, female BALB/c mice. To be noted: 20 mg/kg B.I.D PO 5 days from 8 h post infection.
Data set [12] deals with Influenza A virus (INFV CA/09). In kind it is cell-based.
The test system of data set [13] is INFV B (B/Brisbane). In kind it is cell-based, influenza B virus.
In data set [14] the test system is INFV CA/09 virus. In kind it is cell-based, influenza virus.
Data set [15] relates to MDCK cells. The conditions noted are these: four days post treatment, dilutions starting at 10 μM.
The subject of data set [16] is INFV A (A/CA/09 H1N1). In kind it is cell-based, influenza A virus.

“And” between values parts separate entries of the source, which are not always exact repeats. Equal entries are not always repeated. Where two headings read alike, the source gives them in different places. Some results are limits rather than exact numbers.

For `CCOC(=O)C1=C[C@@H](OC(CC)CC)[C@H](NC(C)=O)[C@@H](N)C1` [Oseltamivir, oseltamivir], the “EC100 (CPE in MDCK cells)” value in [1] is around 1000 nM. Also, the EC50 in [2] (MOI 0.001) was 525 nM; in data set [2] (MOI 0.01), 1900 nM; in data set [2] (MOI 0.1), above 10000 nM; in data set [2] (MOI 1) it was above 10000 nM. Moreover, the “% Survival” value in data set [3] was determined as 20%; in data set [5] it was 80%. Also, the Body weights in data set [4] was 89 gm and 85 gm and 79 gm and 100 gm and 98 gm and 97 gm. In data set [4], this compound showed a survival of 40%. Besides, the “Log reduction (PFU/mL)” value in [6] was 0.24 and 0.52. Further, the “% Survival (Day 14)” value in data set [7] is listed as 100%.

Take `C#CCOCCOCCOCCOCCN(C)C(=O)O[C@@H]([C@H]1OC(C(=O)O)=C[C@@H](NC(=N)N)[C@@H]1NC(C)=O)[C@H](O)CO` [Int-80]: the degredation entry in [8] is listed as “less than 1%”.

Consider `CCOC(=O)C1=C[C@@H](OC(CC)CC)[C@H](NC(C)=O)[C@@H](N)C1` [Oseltamivir phosphate], for which the survival entry in [9] is reported as “survived”; in data set [10] (20 mg/kg PO bid × 5 days initiated at 48 hrs post-infection) it was 0%; in [10] (20 mg/kg PO bid × 5 days initiated at 72 hrs post-infection), 20%. Further, the “Mean Survival” value in [5] is given as 15 days; in data set [11] it was 15. Moreover, the “% Survival” value in data set [11] is given as 100%.

As for `CC(=O)N[C@H]1[C@H]([C@H](O)[C@H](O)CO)OC(C(=O)O)=C[C@@H]1N=C(N)N` [Zanamivir, zanamivir], the EC50 in [12] was 496 nM; in [2] (MOI 0.001) it was 137 nM; in data set [2] (MOI 0.01) it was 938 nM; in [2] (MOI 0.1), above 10000 nM; in data set [2] (MOI 1), above 10000 nM; in data set [13], 383 nM. The EC50 stood at 469 nM in data set [14] and 265 nM in data set [16]. Moreover, the CC50 in [15] is above 10000 nM.

As to `CC(=O)N[C@H]1[C@H]([C@H](OCC(=O)NCCCCNCCCCNC(=O)CO[C@@H]([C@@H]2OC(C(=O)O)=C[C@H](NC(=N)N)[C@H]2NC(C)=O)[C@H](O)CO)[C@H](O)CO)OC(C(=O)O)=C[C@@H]1NC(=N)N` [Int-11], the “% Survival” value in data set [3] is recorded as 0%; in data set [3] (15 mg/kg), 100%. Besides, the “delay in death relative to vehicle and hIgG1 Fc only controls” value in [3] (mouse, in vivo) is on record as at most 2 days. The “greater cumulative dose required for efficacy equivalent to conjugate 6 (mass basis)” value in data set [3] (mouse, in vivo) is 500 ×.

As for `C#CCOCCOCCOCCOCCNC(=O)O[C@@H]([C@@H]1OC(C(=O)O)=C[C@H](NC(=N)N)[C@H]1NC(C)=O)[C@H](O)CO` [Int-4], the degredation in data set [8] was determined as 15%.

Regarding `O=C1c2c(O)c(=O)ccn2N([C@@H]2c3ccccc3SCc3c2ccc(F)c3F)[C@@H]2COCCN12` [baloxavir], the EC50 in data set [2] (Influenza A virus, MDCK, MOI 0.001) was 5 nM; in data set [2] (Influenza A virus, MDCK, MOI 0.01), 4 nM; in [2] (Influenza A virus, MDCK, MOI 0.1) it was 79 nM; in data set [2] (Influenza A virus, MDCK, MOI 1), above 100 nM.
